Results published in publication PMC2567432 (PLoS ONE, 2008).
“Also recorded” adds a separate entry of the source.

Assays:
[1] = test system: breast cancer JIMT-1 cells; experiment: Cell proliferation WST-1 assay, JIMT-1; type: cell-based, human
Experimental: (§1) Figure 3 Growth inhibition of different tumor cell lines by polyphenols. […] Following 24-h incubation, cell proliferation was evaluated using the WST-1 assay.
(§2) Tumor cells were cultured in RPMI medium containing 10% fetal calf serum (RPMI-FCS) (PC-3, JIMT-1, MDA-MD 231) or in DMEM-FCS (astrocytoma 1321N1 cells) containing penicillin/streptomycin (100 U penicillin/ml; 100 µg streptomycin/ml) at 37°C/5% CO2. Cytosolic protein extracts of tumor cells were prepared using extraction buffer composed of 25 mM Tris, 2 mM EDTA, 10% Glycerol, 1% Triton ×100, 2 mM DTT, 1mM PMSF, pH. 7.0 containing 0.3% protease inhibitor cocktail. Protein content was determined according to Bradford. Specific activity of enzymes analyzed in cell extracts was expressed as U/mg protein.
(§3) Cell proliferation/vitality of tumor cells (96-well plates; 5000 cells/well) and primary human hepatocytes (24-well plates; 0.25×10^6 cells/well) was assayed using the WST-1 assay according to manufacturer's instructions. Trypan blue exclusion was performed by staining cells with 0.4% aqueous trypan blue solution according to the manufacturer's instructions.

astrocytoma 1321N1 cells = experiment: Cellular ATP content (CellTiter-Glo), 1321N1; type: cell-based; conditions: 1321N1, 6 h; curcumin 0–100 µM, MGO 0–1000 µM
Experimental: Cellular ATP content was determined using the CellTiter-Glo® Luminescent Cell Viability Assay. Data represent the mean±S.D. of independent experiments (n = 12).
Cell ATP content was determined by means of the CellTiter-Glo® Luminescent Cell Viability Assay according to the manufacturer's instructions (Promega, Madison, USA). […] After 6-h incubation, cells were mixed with test reagents and luminescence was read according to the manufacturer's instructions. A standard curve was prepared from ATP (1 µM to 10 nM) in medium.

Glo1 in JIMT-1 cells = test system: T1, Glo1 in JIMT-1 cells; experiment: Specific Glo1 activity in cytosolic extract of treated cells; type: cell-based, human; conditions: JIMT-1, 24 h
T1 construct: endogenous in cells; host or cells: JIMT-1 breast carcinoma cells (ACC 589; DSMZ)
Experimental: Cells were harvested and the specific activity of Glo1 and LDH was determined in the cytosolic extract. (B) Semi-quantitative analysis of protein content as performed by Western blot using specific antibodies against β-actin and Glo1. The blot was developed by chemoluminescense detection. […] Data represent the mean±S.D. of independent experiments (n = 6). Tumor cells were cultured in RPMI medium containing 10% fetal calf serum (RPMI-FCS) (PC-3, JIMT-1, MDA-MD 231) or in DMEM-FCS (astrocytoma 1321N1 cells) containing penicillin/streptomycin (100 U penicillin/ml; 100 µg streptomycin/ml) at 37°C/5% CO2. Cytosolic protein extracts of tumor cells were prepared using extraction buffer composed of 25 mM Tris, 2 mM EDTA, 10% Glycerol, 1% Triton ×100, 2 mM DTT, 1mM PMSF, pH. 7.0 containing 0.3% protease inhibitor cocktail. Protein content was determined according to Bradford. Specific activity of enzymes analyzed in cell extracts was expressed as U/mg protein. […] The inhibition constant, Ki value of the inhibitors was evaluated by Dixon plot showing the reciprocal of enzyme velocity against the inhibitor concentration at variable concentrations of the substrate. Human Glo2 (E.C.3.1.2.6) was measured using the substrate S-lactoylglutathione as described earlier.

1321N1 cells = experiment: L-LDH release into cell supernatants; type: cell-based; conditions: 50 µM
Experimental: Tumor cells were cultured and treated as mentioned in Fig. 3. (A) LDH activity was measured in cell supernatants. (B) Cell vitality as assayed by the trypan blue exclusion test. Data represent the mean±S.D. of independent experiments (n = 6).
(§4) LDH activity was spectrophotometrically assayed in the cytosolic extract or in the of cell cultures by adding aliquots to 1 ml reaction buffer (50 mM Na2HPO4, pH 7.0, 0.15 mM NADH, and 0.3 mM pyruvate). Enzyme activity was recorded at 340 nm.

[2] = test system: brain astrocytoma 1321N1 cells; experiment: Cell proliferation WST-1 assay, 1321N1; type: cell-based
Experimental: as §1, §2, §3

[3] = test system: breast cancer MDA-MB-231 cells; experiment: Cell proliferation WST-1 assay, MDA-MB-231; type: cell-based, human; conditions: MDA-MB-231, 24 h
Experimental: as §1, §2, §3

[4] = test system: primary human hepatocytes; experiment: Vitality of primary human hepatocytes (WST-1); type: cell-based; conditions: 24-h incubation, increasing concentrations
Experimental: Apoptosis/necrosis was evaluated using annexin V-5-fluorescein isothiocyanate (FITC)/propidium iodine (PI) staining followed by flow cytometric analysis. […] The proportion of dead cells (a: annexin V-FITC^−/PI^+), late apoptotic/necrotic cells (b: annexin V-FITC^+/PI^+), non-apoptotic cells (c: annexin V-FITC^−/PI^−) and early apoptotic cells (d: annexin V-FITC^+/PI^−). (B) Results of 3 independent experiments. […] Data represent the mean±S.D. of three independent experiments.
Primary human hepatocytes were isolated and cultivated in serum-free William Medium E [59]. Tissue samples from human liver resection were obtained from patients undergoing partial hepatectomy for metastatic liver tumor of colorectal cancer. Experimental procedures were performed according to the guidelines of the charitable state controlled foundation (Human Tissue and Cell Research), with the informed patient's consent approved by the local ethical committee.
as §3

LDH = LDH activity measurement, interference check; type: biochemical; conditions: spectrophotometric, 340 nm
Experimental: as §4

JIMT-1 cells = experiment: Glutathione (GSH) level in cytosolic extract, JIMT-1; type: cell-based, human; conditions: JIMT-1, 50 µM, 24 h
Experimental: Cells were harvested and GSH concentration was determined in the cytosolic extract. Data represent the mean±S.D. of independent experiments (n = 6).
GSH was determined using DTNB method. Briefly, cytosolic extract of tumor cells were precipitated by 5% sulfosalicylic acid neutralization, aliquots were mixed with DTNB and absorbance was read at 412 nm against a standard solution of GSH.

## COc1cc(C=CC(=O)CC(=O)C=Cc2ccc(O)c(OC)c2)ccc1O [curcumin, 1,7-bis(4-hydroxy-3-methoxyphenyl)-1,6-heptadiene-3,5-dione]
[1]; Homo sapiens, JIMT-1, 50 µM, 24 h
  inhibition at 50 µM: ~30%
[1]; JIMT-1, 24 h, WST-1
  concentration giving strong anti-proliferative effects: above 50 µM
Astrocytoma 1321N1 cells
  cellular ATP content: decreased cellular ATP in a concentration-dependent manner
Glo1 in JIMT-1 cells
  specific Glo1 activity in treated cells: decreased dose-dependently
1321N1 cells; 6-h incubation
  L-LDH release: not significantly increased
1321N1 cells; 24-h incubation
  LDH release: increased
[2]; 1321N1, 24 h, WST-1
  concentration giving strong anti-proliferative effects: above 50 µM
[2]; Homo sapiens, 1321N1, 50 µM, 24 h
  inhibition at 50 µM: ~30%
[3]
  concentration giving strong anti-proliferative effects: above 50 µM
[4]
  cell vitality of primary human hepatocytes: no effect; also recorded: not affected
LDH
  effect on LDH enzyme activity in the assay: not affected
JIMT-1 cells
  GSH diminished by: approximately 20%
